Data: patent US20070269420A1, “Compounds, Compositions and Methods for Treatment and Prophylaxis of Hepatitis C Viral Infections and Associated Diseases” (priority 2003, published 2007)

Columns and labels:
[1] = system: Clone-A cells; assay: Genomic DNA fragmentation by agarose gel electrophoresis; type: cell-based, human; details: Huh7, Clone-A and 559^R treated
Procedure: DNA fragmentation is a measure of apoptotic cell death. Huh7, Clone-A and 559^R were treated with Compound B and genomic DNA fragmentation determined by agarose gel electrophoresis.

[2] = system: HCV replicon (BB7 sequence) in Huh-7-Clone A cells; assay: HCV replicon NS5A ELISA, inhibition of viral RNA replication; type: cell-based, hepatitis C virus; details: measured by Elisa and quantitative RT-PCR, Clone-A cells
Procedure: Antiviral activity of representative compounds of the invention was evaluated in a human liver-derived cell line (Huh-7-Clone A) containing the HCV replicon (BB7 sequence) (See Lohmann et al. Science. 1999, 285:110-3; Blight K J et al., Science. 2000, 290:1972-4; Pietschmann, T. et al., J. Virol. 2001, 73:1252-1264; and Lohmann, V. et al., J. Virol. 2001, 75:1437-1449). The HCV replicon is a subgenomic viral RNA that expresses the HCV proteins required for its own replication. These proteins include non-structural proteins NS3, NS4A, NS4B, NS5A and NS5B. The replicon also contains a foreign gene encoding a drug-selectable marker (neomycin phosphotransferase) to allow for G418 (neomycin) selection of cells that contain the replicon.
An ELISA (enzyme-linked immunosorbant assay) was used to determine the effect of compounds within the scope of the invention on the amount of HCV NS5A protein produced after a 72-hour incubation of the replicon-containing cells in the presence of varying concentrations of compound. Huh7-Clone A cells were seeded in 96-well plates at a subconfluent density (9000 cells/well) in medium containing 2% FBS and incubated for 4 hours to allow attachment to occur. HCV-086 (solubilized with 100% dimethylsulfoxide [DMSO]) was added to wells using an 8-point, 3-fold serial dilution series, with a final DMSO concentration of 1% in a total volume of 200 μL. Plates were incubated for 72 hours at 37° C. and 5% CO2. Under these conditions, the cells are approximately 25% confluent at the time of seeding and 80-90% confluent on day 3. COSTAR® 96-well cell culture plates were used but other known cell culture plates may be used. After incubation, media is removed from wells and the cells are fixed to the assay plate using 0.05% glutaraldehyde (Fisher # 02957-4). The glutaraldehyde is then washed off using phosphate-buffered saline (PBS) following a 1 hour incubation and cells are blocked for non-specific antibody binding using for example SUPERBLOCK® reagent (blocking buffer) in PBS. The blocking agent is rinsed from the cells with PBS after 1 hour at 37° C., and HCV NS5A monoclonal antibody (Virostat # 1873) is added to each well containing compound. Primary antibody is incubated for 1 hour at 37° C. and rinsed 3 times with PBS containing 0.02% TWEEN-20™ before addition of Horseradish Peroxidase (HRP) conjugated secondary antibody. HRP is incubated for 1 hour at 37° C. and rinsed several times, first with PBS/TWEEN-20™ followed by PBS alone. To quantify peroxidase activity, 3,3′,5,5′-tetramethylbenzidine (TMB) substrate is added to the plate and after 30 minutes, the plates are read in an ELISA plate reader at an OD of 650 nm.
Compound dose response was measured in an 8-point dose curve diluted serially to determine the inhibitory concentration at 50% (EC50 value). […] Ranges of 50% effective concentrations (EC50s) for the representative compounds within the scope of this invention are listed in Tables 1-8. Preferred compounds have 50% effective concentrations at about 30 μM or less, more preferred compounds have 50% effective concentrations at about 5 μM or less, and most preferred compounds have 50% effective concentrations at about 0.5 μM or less.

[3] = target: T1, HCV NS4B (Hepatitis C virus genotype 1b, UniProt Q9WMX2); assay: NS4B binding assay (quenching of intrinsic protein fluorescence); details: fluorescent binding assay
T1 construct: NS4B was cloned, expressed and purified to establish an assay; made in house
T1 sequence (Q9WMX2 1712-1972): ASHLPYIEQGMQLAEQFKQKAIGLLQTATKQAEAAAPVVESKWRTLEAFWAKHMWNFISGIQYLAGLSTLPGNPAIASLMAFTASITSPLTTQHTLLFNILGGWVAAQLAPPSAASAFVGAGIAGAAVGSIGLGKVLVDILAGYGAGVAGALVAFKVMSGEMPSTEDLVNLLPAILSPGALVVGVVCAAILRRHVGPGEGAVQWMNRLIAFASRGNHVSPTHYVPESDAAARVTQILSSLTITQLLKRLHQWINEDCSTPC
Description: NS4B was cloned, expressed and purified to establish an assay, which takes advantage of the intrinsic fluorescent properties of proteins and identifies compounds, which inhibit by a NS4B specific mechanism. This protein is necessary for viral replication. It is thought to act as an anchor securing the replication complex to cellular membranes, where replication is known to occur. Several other functions necessary for viral replication have also ascribed to NS4B.

[4] = system: 559^R cells; assay: Crystal violet qualitative cell proliferation assay, 5 day incubation, resistant clone; type: cell-based, human; details: crystal violet staining
Procedure: (§1) The cellular toxicity of Compound A at different concentrations was assessed on different cell lines following crystal violet staining (qualitative cell proliferation assay) after 5 day incubation. Huh7 cells are human hepatoma cells. A genotype 1b replicon-containing cell line derived from Huh7 cells (Clone-A) was obtained from Apath, LLC. Clone-A cells were selected under Compound B drug pressure and a resistant clone was selected (559^R) which contained mutations in NS4B gene.

[5] = system: Huh-7 cells; type: cell-based; details: human, 5 day
Procedure: as §1

[6] = system: Clone-A cells; assay: Crystal violet qualitative cell proliferation assay, 5 day incubation, Clone-A; type: cell-based, human; details: crystal violet staining
Procedure: as §1

Structure (SMILES)	genomic DNA fragmentation (apoptose) [1]	activity against HCV-replicon [2]	binding activity towards purified HCV NS4B [3]	cellular toxicity [4] [µM]	cellular toxicity [5] [µM]	cellular toxicity [6] [µM]
CCCCc1c(C)nn(-c2nnc3c4ccccc4n(CC)c3n2)c1C [Compound B, 2-(4-butyl-3,5-dimethyl-pyrazol-1-yl)-9-ethyl-9H-1,3,4,9-tetraaza-fluorene]	cause DNA fragmentation (apoptose) in Clone-A cells only	demonstrated activity	demonstrated binding activity	–	–	–
Cc1nn(-c2nnc3c4ccccc4n(C)c3n2)c(C)c1-c1ccccc1 [Compound A, 2-(3,5-dimethyl-4-phenyl-pyrazol-1-yl)-9-methyl-9H-1,3,4,9-tetraaza-fluorene]	–	demonstrated activity	demonstrated binding activity	~30	~30	~3
